Measured values as given in US7098340B2, “Benzyl sulfonamide derivatives” (Warner Lambert Company LLC, priority 2003, dated 2006).

Molecular target: T1, androgen receptor (Homo sapiens, UniProt P10275)
T1 sequence (P10275 1-920 Q868H): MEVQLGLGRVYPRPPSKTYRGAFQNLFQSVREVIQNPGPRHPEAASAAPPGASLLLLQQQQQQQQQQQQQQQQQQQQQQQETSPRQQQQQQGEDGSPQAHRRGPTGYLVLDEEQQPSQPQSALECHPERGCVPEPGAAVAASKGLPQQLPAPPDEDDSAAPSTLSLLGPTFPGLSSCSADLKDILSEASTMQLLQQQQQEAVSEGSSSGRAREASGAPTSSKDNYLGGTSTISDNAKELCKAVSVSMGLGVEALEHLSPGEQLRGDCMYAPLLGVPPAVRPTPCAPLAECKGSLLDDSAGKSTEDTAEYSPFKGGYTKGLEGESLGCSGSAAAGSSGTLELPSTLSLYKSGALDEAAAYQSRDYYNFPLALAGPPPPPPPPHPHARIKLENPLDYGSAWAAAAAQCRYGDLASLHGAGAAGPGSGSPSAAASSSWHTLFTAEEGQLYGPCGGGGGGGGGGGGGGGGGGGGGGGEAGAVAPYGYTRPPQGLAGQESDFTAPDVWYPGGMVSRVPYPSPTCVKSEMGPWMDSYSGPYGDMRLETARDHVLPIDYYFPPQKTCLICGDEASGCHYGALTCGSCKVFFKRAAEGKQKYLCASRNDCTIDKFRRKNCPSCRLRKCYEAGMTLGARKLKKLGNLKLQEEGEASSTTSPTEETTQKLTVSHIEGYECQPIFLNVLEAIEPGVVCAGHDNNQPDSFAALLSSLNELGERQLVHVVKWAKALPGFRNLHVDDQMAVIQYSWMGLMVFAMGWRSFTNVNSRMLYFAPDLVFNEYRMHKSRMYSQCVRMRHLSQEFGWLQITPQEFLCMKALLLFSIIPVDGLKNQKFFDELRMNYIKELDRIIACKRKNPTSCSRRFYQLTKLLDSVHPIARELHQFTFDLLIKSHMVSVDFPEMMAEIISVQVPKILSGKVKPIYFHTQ
Test: AR Antagonist Cell Assay (MMTV-luciferase reporter, DHT-stimulated)
Format: cell-based
Conditions: MDA-MB453-MMTV clone 54-19 cells; antagonism of 100 pM DHT, 17 hr, luciferase readout
Method: The compounds ability to antagonize the effects of androgen on the androgen receptor were determined in the protocol described immediately below.
Experimental Procedure for AR Antagonist Cell Assay
Cell line: MDA-MB453-MMTV clone 54–19. This cell line is a stable transfected cell line with MDA-MB453 cell background (human breast tumor cell expressing high level of androgen receptor). A MMTV minimal promoter containing ARE was first cloned in front of a firefly luciferase reporter gene. Then the cascade was cloned into transfection vector pUV120puro. Electroporation method was used for transfecting MDA-MB-453 cell. Puromycin resistant stable cell line was selected.
Cell Culture Media and Reagents:
Culture medium: DMEM (high glucose, Gibco cat #: 11960-044), 10% FBS, and 1% L-glutamine
Plating medium: DMEM (phenol red free), 10% charcoal treated HyClone serum, 1% L-glutamine
Assay medium: DMEM (phenol red free), 1% charcoal treated HyClone serum, 1% L-glutamine, and 1% penicillin/streptomycin
3× luciferase buffer: 2% beta-mercaptoethanol, 0.6% ATP, 0.0135% luciferine in cell lysis buffer
• 1. Cells are maintained in culture medium, splitting cells when they reach 80–90% confluence • 2. To test compounds, 10,000 cells/well are plated to opaque 96 cell culture plate in 100 ul/well plating medium, culture for overnight at 37° C. in cell culture incubator • 3. Carefully remove plating medium, then add 80 ul/well of pre-warmed assay medium, add 10 ul/well testing compound (final concentration at 10 uM or 1 uM), incubate at 37° C. for 30 minutes • 4. Add 10 ul/well freshly prepared DHT (final concentration at 100 pM) to each well, incubate at 37° C. for 17 hr (overnight) • 5. Add 50 ul/well 3× luciferase buffer, incubate at room temperature for 5 minutes, then count on Luminometer.
The fold induction over background by 100 pM DHT in the absence of testing compounds is standardized as 100% and experimental result is expressed as percentage of inhibition by testing compounds.

| Compound | IC50 |
| --- | --- |
| Cc1ccc(NS(=O)(=O)c2ccc(Cc3ccc4oc(=O)cc(C(F)(F)F)c4c3)cc2)cc1 [Example 116, 4-(2-Oxo-4-trifluoromethyl-2H-chromen-6-ylmethyl)-N-p-tolylbenzenesulfonamide] | 1.21 µM |
| CCCCN(CCO)S(=O)(=O)c1ccc(Cc2ccc3oc(=O)cc(C(F)(F)F)c3c2)cc1 [Example 100, N-Butyl-N-(2-hydroxyethyl)-4-(2-oxo-4-trifluoromethyl-2H-chromen-6-ylmethyl)-benzenesulfonamide] | ~10 µM |
| O=c1cc(C(F)(F)F)c2cc(Cc3ccc(S(=O)(=O)Nc4ccccc4N4CCCCC4)cc3)ccc2[nH]1 [Example 41, 4-(2-Oxo-4-trifluoromethyl-1,2-dihydroquinolin-6-ylmethyl)-N-(2-piperidin-1-ylphenyl)-benzenesulfonamide] | > 10 µM |
| O=c1cc(C(F)(F)F)c2cc(Cc3ccc(S(=O)(=O)Nc4ccc5c(c4)CCC5)cc3)ccc2[nH]1 [Example 20, N-Indan-5-yl-4-(2-oxo-4-trifluoromethyl-1,2-dihydroquinolin-6-ylmethyl)-benzenesulfonamide] | > 10 µM |
| O=c1cc(C(F)(F)F)c2cc(Cc3ccc(S(=O)(=O)NCCc4cccs4)cc3)ccc2o1 [Example 176, 4-(2-Oxo-4-trifluoromethyl-2H-chromen-6-ylmethyl)-N-(2-thiophen-2-ylethyl)benzenesulfonamide] | 6 µM |
| O=c1cc(C(F)(F)F)c2cc(Cc3ccc(S(=O)(=O)NCc4c(F)cccc4Cl)cc3)ccc2[nH]1 [Example 78, N-(2-Chloro-6-fluorobenzyl)-4-(2-oxo-4-trifluoromethyl-1,2-dihydroquinolin-6-ylmethyl)-benzenesulfonamide] | > 10 µM |
| Cc1ccc(-c2ccccc2)cc1NS(=O)(=O)c1ccc(Cc2ccc3oc(=O)cc(C(F)(F)F)c3c2)cc1 [Example 132, N-(4-Methylbiphenyl-3-yl)-4-(2-oxo-4-trifluoromethyl-2H-chromen-6-ylmethyl)-benzenesulfonamide] | 8.13 µM |
| O=c1cc(C(F)(F)F)c2cc(Cc3ccc(S(=O)(=O)NC(CCO)c4ccccc4)cc3)ccc2o1 (centres unmarked) [Example 192, N-(3-Hydroxy-1-phenylpropyl)-4-(2-oxo-4-trifluoromethyl-2H-chromen-6-ylmethyl)benzenesulfonamide] | 6.52 µM |
| O=c1cc(C(F)(F)F)c2cc(Cc3ccc(S(=O)(=O)NCc4ccccc4Br)cc3)ccc2o1 [Example 203, N-(2-Bromobenzyl)-4-(2-oxo-4-trifluoromethyl-2H-chromen-6-ylmethyl)benzenesulfonamide] | 2.19 µM |
| CCCCN(CC)S(=O)(=O)c1ccc(Cc2ccc3oc(=O)cc(C(F)(F)F)c3c2)cc1 [Example 99, N-Butyl-N-ethyl-4-(2-oxo-4-trifluoromethyl-2H-chromen-6-ylmethyl)benzenesulfonamide] | 4.15 µM |
| CC(O)c1cccc(NS(=O)(=O)c2ccc(Cc3ccc4[nH]c(=O)cc(C(F)(F)F)c4c3)cc2)c1 (centres unmarked) [Example 23, N[-3-(1-Hydroxyethyl)phenyl]-4-(2-oxo-4-trifluoromethyl-1,2-dihydroquinolin-6-ylmethyl)-benzenesulfonamide] | 1.67 µM |
| CN(CCc1ccccc1)S(=O)(=O)c1ccc(Cc2ccc3oc(=O)cc(C(F)(F)F)c3c2)cc1 [Example 112, N-Methyl-4-(2-oxo-4-trifluoromethyl-2H-chromen-6-ylmethyl)-N-phenethyl-benzenesulfonamide] | > 10 µM |
| CCOC(=O)CC(NS(=O)(=O)c1ccc(Cc2ccc3oc(=O)cc(C(F)(F)F)c3c2)cc1)c1ccccc1 (centres unmarked) [Example 205, 3-[4-(2-Oxo-4-trifluoromethyl-2H-chromen-6-ylmethyl)-benzenesulfonylamino]-3-phenylpropionic acid ethyl ester] | 3.43 µM |
| CCN(Cc1ccncc1)S(=O)(=O)c1ccc(Cc2ccc3oc(=O)cc(C(F)(F)F)c3c2)cc1 [Example 98, N-Ethyl-4-(2-oxo-4-trifluoromethyl-2H-chromen-6-ylmethyl)-N-pyridin-4-ylmethyl-benzenesulfonamide] | 2.43 µM |
| COc1cccc(NS(=O)(=O)c2ccc(Cc3ccc4oc(=O)cc(C(F)(F)F)c4c3)cc2)c1 [Example 156, N-(3-Methoxyphenyl)-4-(2-oxo-4-trifluoromethyl-2H-chromen-6-ylmethyl)benzene-sulfonamide] | 1.72 µM |
| CC(=O)c1cccc(NS(=O)(=O)c2ccc(Cc3ccc4oc(=O)cc(C(F)(F)F)c4c3)cc2)c1 [Example 129, N-(3-Acetylphenyl)-4-(2-oxo-4-trifluoromethyl-2H-chromen-6-ylmethyl)benzenesuifonamide] | 2.16 µM |
| O=c1cc(C(F)(F)F)c2cc(Cc3ccc(S(=O)(=O)NC(CCO)c4ccccc4)cc3)ccc2[nH]1 (centres unmarked) [Example 72, N-(3-Hydroxy-1-phenylpropyl)-4-(2-oxo-4-trifluoromethyl-1,2-dihydroquinolin-6-ylmethyl)-benzenesulfonamide] | > 10 µM |
| C[C@H](NS(=O)(=O)c1ccc(Cc2ccc3oc(=O)cc(C(F)(F)F)c3c2)cc1)c1ccccc1 [Example 172, 4-(2-Oxo-4-trifluoromethyl-2H-chromen-6-ylmethyl)-N-(1-phenylethyl)-benzenesulfonamide] | 4.66 µM |
| O=c1cc(C(F)(F)F)c2cc(Cc3ccc(S(=O)(=O)Nc4cccc5cnccc45)cc3)ccc2[nH]1 [Example 31, N-Isoquinolin-5-yl-4-(2-oxo-4-trifluoromethyl-1,2-dihydroquinolin-6-ylmethyl)-benzenesulfonamide] | > 10 µM |
| CN(C1CCCCC1)S(=O)(=O)c1ccc(Cc2ccc3oc(=O)cc(C(F)(F)F)c3c2)cc1 [Example 106, N-Cyclohexyl-N-methyl-4-(2-oxo-4-trifluoromethyl-2H-chromen-6-ylmethyl)-benzenesulfonamide] | > 10 µM |
| O=c1cc(C(F)(F)F)c2cc(Cc3ccc(S(=O)(=O)Nc4cccc(C(F)(F)F)c4)cc3)ccc2o1 [Example 145, 4-(2-Oxo-4-trifluoromethyl-2H-chromen-6-ylmethyl)-N-(3-trifluoromethylphenyl)-benzenesulfonamide] | 1.72 µM |
| COc1cc(NS(=O)(=O)c2ccc(Cc3ccc4[nH]c(=O)cc(C(F)(F)F)c4c3)cc2)cc(OC)c1 [Example 34, N-(3,5-Dimethoxyphenyl)-4-(2-oxo-4-trifluoromethyl-1,2-dihydroquinolin-6-ylmethyl)-benzenesulfonamide] | > 10 µM |
| O=c1cc(C(F)(F)F)c2cc(Cc3ccc(S(=O)(=O)Nc4cc(F)c(F)c(F)c4)cc3)ccc2[nH]1 [Example 35, 4-(2-Oxo-4-trifluoromethyl-1,2-dihydroquinolin-6-ylmethyl)-N-(3,4,5-trifluorophenyl)-benzenesulfonamide] | > 10 µM |
| O=c1cc(C(F)(F)F)c2cc(Cc3ccc(S(=O)(=O)NCc4ccccc4C(F)(F)F)cc3)ccc2o1 [Example 201, 4-(2-Oxo-4-trifluoromethyl-2H-chromen-6-ylmethyl)-N-(2-trifluoromethylbenzyl)-benzenesulfonamide] | 4.04 µM |
| CN1CCC(N(C)S(=O)(=O)c2ccc(Cc3ccc4oc(=O)cc(C(F)(F)F)c4c3)cc2)CC1 [Example 96, N-Methyl-N-(1-methylpipendin-4-yl)-4-(2-oxo-4-trifluoromethyl-2H-chromen-6-ylmethyl)-benzenesulfonamide] | > 10 µM |
| O=c1cc(C(F)(F)F)c2cc(Cc3ccc(S(=O)(=O)NC4CCN(Cc5ccccc5)CC4)cc3)ccc2o1 [Example 157, N-(1-Benzylpipendin-4-yl)-4-(2-oxo-4-trifluoromethyl-2H-chromen-6-ylmethyl)benzenesulfonamide] | 6.09 µM |
